In assay [1] the target is T1, kiwifruit GDP-L-Galactose Guanyltransferase EST 319998 (Actinidia chinensis, UniProt A0A2R6QD99). Description: Continuous coupled assay of transferase activity with guanyl acceptors. Conditions: for % of D-mannose-1P / Rate: sugar phosphate as guanyl acceptor, epimerase generated substrate; for Rate: N = 6; for ability to act as acceptor for the guanyl moiety / vamax / Km: FIG. 3; for ability to act as acceptor for the guanyl moiety: physiological concentrations; for vamax / Km: varying concentrations of the guanyl acceptor, continuous coupled assay. As to the method: Expression of genes in E. coli. The EST 319998 from young fruit of Actinidia chinensis and At4g26850 were each cloned into pET30A (Novagene, USA), their sequence checked and expressed in E. coli. The N terminal His6 tag was used to purify the protein. An empty vector control was expressed and purified in parallel. Techniques were essentially as described earlier (Laing et al., 2004).
(§1) L-Galactose dehydrogenase (Gen Bank accession AA018639 (EST 56121), 1.5 ug/assay) was cloned from an EST derived from an A. deliciosa (kiwifruit) shoot bud library with a maltose binding protein presequence and assayed as described previously (Laing et al., 2004). L-Galactose-1-Phosphate phosphatase was cloned from Arabidopsis thaliana (At3g02870, 3.1 ug/assay) and assayed as described (Laing et al., 2004). GDP-D-Mannose 3′,5′-Epimerase (198296) was cloned from dormant kiwifruit (A. deliciosa) buds three days after hydrogen cyanamide treatment and assayed as described (Wolucka et al., 2001). The former two enzymes are highly specific as to their substrates (Laing et al., 2004; Laing et al., 2004).
The assay for GDP-L-Galactose-1-Phosphate Guanyltransferase was run in 20 mM TrisCl, pH 8.0, GDP-L-Galactose, with 1 mM D-Mannose-1-Phosphate. […] In the latter case, 0.21 mg of epimerase was incubated with GDP-D-Mannose in 20 mM Tris Cl pH 8 in a total volume of 400 μL (see Wolucka et al., 2001) for 30 minutes at 20 C and then used directly in the assay at a 1 to 20 dilution. Assays were either terminated after 10 minutes by heating to 100 C for three minutes, or directly coupled to the phosphatase and L-Galactose dehydrogenase to measure product formation during the assay. Heat terminated assays were cooled on ice, centrifuged to remove precipitated protein and L-Galactose assayed using the coupling enzymes described above (see also (Laing et al., 2004)).
The applicants used two assays to characterise the enzyme, using two sources of the substrate GDP-L-Galactose. The first assay used the E. coli expressed coupling enzymes L-Galactose-1-Phosphate phosphatase and L-Galactose dehydrogenase. […] The applicants either measured the product formed by adding the coupling enzymes in the assay and measuring the time course of NADH formed, or by stopping the reaction after 10 minutes by boiling for 3 minutes and centrifuging. To this latter fixed time assay, the applicants then either adding coupling enzymes to measure L-Galactose production or using the LCMS to measure the products. The LCMS was used only to confirm the results of the coupled enzyme reaction and to measure the reverse reaction.

Assay [2] concerns the target T1, kiwifruit GDP-L-Galactose Guanyltransferase EST 319998. Description: Fixed time transferase assay, aliquots measured by LCMS. It counts as biochemical. Conditions: acceptor Gal1P (reverse reaction). As to the method:
The assay for GDP-L-Galactose-1-Phosphate Guanyltransferase was run in 20 mM TrisCl, pH 8.0, GDP-L-Galactose, with 1 mM D-Mannose-1-Phosphate. GDP-L-Galactose was either used directly from the Glycoteam product (in which case high backgrounds were observed due to contaminating L-Galactose-1-Phosphate) or GDP-L-Galactose was generated using the epimerase. In the latter case, 0.21 mg of epimerase was incubated with GDP-D-Mannose in 20 mM Tris Cl pH 8 in a total volume of 400 μL (see Wolucka et al., 2001) for 30 minutes at 20 C and then used directly in the assay at a 1 to 20 dilution. Assays were either terminated after 10 minutes by heating to 100 C for three minutes, or directly coupled to the phosphatase and L-Galactose dehydrogenase to measure product formation during the assay. Heat terminated assays were cooled on ice, centrifuged to remove precipitated protein and L-Galactose assayed using the coupling enzymes described above (see also (Laing et al., 2004)). Assays for L-Galactose were linear with added L-Galactose-1-Phosphate over the range measured. Backgrounds were run using the empty vector control, which gave the same result as a boiled enzyme control.
As an alternative assay, LCMS was used to identify the forward reaction described above as well measure as the reverse pyrophosphorylase reaction where GTP (1 mM) and L-Galactose-1-Phosphate were incubated as above and the formation of GDP-L-Galactose followed. GDP-D-Mannose and GDP-L-Galactose were separated by HPLC before MS. LC-MS employed an LTQ linear ion trap mass spectrometer fitted with an ESI interface (ThermoQuest, Finnigan, San Jose, Calif., USA) coupled to an EttanTM MDLC (GE Healthcare Bio-Sciences). Separation of GDP-D-Mannose and GDP-L-Galactose was achieved using a Hypercarb column (Thermo Electron, USA), 100×2.1 mm maintained at 40 C. Solvents were (A) 50 mM ammonium acetate and (B) acetonitrile and the flow rate was 200 uL/min. The initial mobile phase, 5% B was held for 3 min, then ramped linearly to 20% B at 11 min, held for 5 min, then ramped linearly to 70% B at 19 min and held for 5 min before resetting to the original conditions. Retention times for GDP-D-Mannose and GDP-L-Galactose were 16.8 min and 17.5 min, respectively.
MS data was acquired in the negative mode using both a selective reaction monitoring (SRM) method SRM m/z 604>m/z 344, 362, 424, 442 and a selected ion monitoring (SIM) method SIM m/z 604. This SIM method monitors only the (M-H)— ion for GDP-D-Mannose and GDP-L-Galactose while the SRM method monitors the distinctive daughter ions formed by fragmenting the precursor ion (M-H)— for both compounds. Both methods maximise sensitivity by screening out any chemical noise from other compounds present. The ESI voltage, capillary temperature, sheath gas pressure, sweep gas and auxiliary gas were set at −10 V, 350° C., 25 psi, 3 psi, and 3 psi, respectively. Separation of D-Mannose-1-Phosphate and L-Galactose-1-Phosphate was achieved isocratically using a Hypercarb column (Thermo Electron, USA), 100×2.1 mm maintained at 40° C. Solvents were (A) 20 mM ammonium acetate and (B) methanol and the flow rate was 200 uL/min. Using a mobile phase of 2% B the retention times for D-Mannose-1-Phosphate and L-Galactose-1-Phosphate were 4.3 min and 4.9 min, respectively. MS data was acquired in the negative mode using both a selective reaction monitoring (SRM) method SRM m/z 259>m/z 79, 97 and a selected ion monitoring (SIM) method SIM m/z 259. […]

Assay [3] concerns L-Galactose dehydrogenase. Description: L-Galactose dehydrogenase substrate specificity. It counts as biochemical, A. deliciosa (kiwifruit). As to the method: as §1
The applicants used two assays to characterise the enzyme, using two sources of the substrate GDP-L-Galactose. The first assay used the E. coli expressed coupling enzymes L-Galactose-1-Phosphate phosphatase and L-Galactose dehydrogenase. […] The dehydrogenase is specific to L-Galactose, not reacting with D-Mannose or D-Galactose or a range of other sugars (Gatzek et al., 2002; Laing et al., 2004) except for L-Gulose. […] Consequently, our coupled assay would measure primarily L-Galactose and also L-Gulose. The applicants either measured the product formed by adding the coupling enzymes in the assay and measuring the time course of NADH formed, or by stopping the reaction after 10 minutes by boiling for 3 minutes and centrifuging. To this latter fixed time assay, the applicants then either adding coupling enzymes to measure L-Galactose production or using the LCMS to measure the products. The LCMS was used only to confirm the results of the coupled enzyme reaction and to measure the reverse reaction.

Assay [4] has as its system Tobacco (Nicotiana benthamiana) leaves. Description: Leaf ascorbate after transient transformation of tobacco leaves. It counts as in vivo. Particulars: transient expression with P19. The source says:
Tobacco (Nicotiana benthamiana) was transiently transformed with Agrobacterium containing the kiwifruit gene for GDP-L-Galactose Guanyltransferase (EST 319998) cloned in pGreen (Hellens et al., 2000) mixed with Agrobacterium containing the gene for the silencing suppressor P19 as previously described (Hellens et al., 2005). Controls were run using Agrobacterium containing P19 in pGreen alone. Tobacco leaves were harvested 9 days after transformation and frozen in liquid nitrogen.
Ascorbate was extracted as described previously in metaphosphoric acid without reducing agent (Davey et al., 2003; Rassam and Laing, 2005). […]

Where “and” joins values, the source holds several entries; their conditions need not be identical. Equal entries are not always repeated.

The Km is the substrate concentration at which the rate is half of its maximum.

T1 sequence (A0A2R6QD99 entry or part of it): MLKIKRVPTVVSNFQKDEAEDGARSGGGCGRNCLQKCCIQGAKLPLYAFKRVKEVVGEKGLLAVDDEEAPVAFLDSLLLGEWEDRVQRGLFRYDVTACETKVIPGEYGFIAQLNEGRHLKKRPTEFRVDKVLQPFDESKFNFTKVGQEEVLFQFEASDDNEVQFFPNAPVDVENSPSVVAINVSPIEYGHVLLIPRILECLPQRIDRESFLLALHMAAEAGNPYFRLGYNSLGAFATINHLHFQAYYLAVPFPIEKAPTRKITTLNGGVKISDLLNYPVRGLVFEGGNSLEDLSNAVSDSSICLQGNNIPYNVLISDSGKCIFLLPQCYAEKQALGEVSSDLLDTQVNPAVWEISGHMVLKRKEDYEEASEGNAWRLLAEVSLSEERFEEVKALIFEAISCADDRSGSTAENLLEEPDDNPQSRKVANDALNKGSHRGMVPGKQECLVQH

As for `O=P(O)(O)O[C@H]1O[C@H](CO)[C@H](O)[C@H](O)[C@H]1O` [D-Galactose-1-P], in assay [1], the “% of D-mannose-1P” value is 113% and the Rate was 0.38 nmoles/sec/ug protein.
`O=P(O)(O)O[C@H]1O[C@H](CO)[C@@H](O)[C@H](O)[C@H]1O` [D-Glucose-1-P]: in assay [1], the “% of D-mannose-1P” value is 106% and 74%; the Rate is 0.35 nmoles/sec/ug protein and 0.24 nmoles/sec/ug protein.
In the case of `O=P(O)(O)OC[C@H]1OC(O)[C@H](O)[C@@H](O)[C@@H]1O` (stereo partly drawn) [D-Glucose-6-P], the “rate relative to the best acceptors” value in assay [1] (guanyl acceptor, Table 2) is given as “about 25%”. Further, in assay [1], the “% of D-mannose-1P” value worked out at 24% and the Rate is 0.08 nmoles/sec/ug protein.
Regarding `O=P(O)(O)O[C@H]1O[C@H](CO)[C@@H](O)[C@H](O)[C@@H]1O` [D-Mannose-1-P, D-Mannose-1-Phosphate], in assay [1], the “ability to act as acceptor for the guanyl moiety” value (shortened to “ability to act as acceptor”) is “better acceptor for the guanyl moiety than phosphate or pyrophosphate”, the “% of D-mannose-1P” value amounted to 100%, the Rate was 0.33 nmoles/sec/ug protein and the vamax is reported as 0.17±0.009 nmoles sec^−1 ug^−1 protein.
Turning to `Nc1nc2c(ncn2[C@@H]2O[C@H](COP(=O)(O)OP(=O)(O)O[C@H]3O[C@H](CO)[C@@H](O)[C@H](O)[C@@H]3O)[C@@H](O)[C@H]2O)c(=O)[nH]1` [GDPMan, GDP-D-Mannose], the “transferase activity, LCMS” value in assay [2] (0.057 ug protein) and in assay [2] (1.14 ug protein) was 0 nmoles/sec/ug protein throughout.
Take `Nc1nc2c(ncn2[C@@H]2O[C@H](COP(=O)(O)OP(=O)(O)OP(=O)(O)O)[C@@H](O)[C@H]2O)c(=O)[nH]1` [GTP]: the “transferase activity, LCMS” value in assay [2] (0.057 ug protein) and in assay [2] (1.14 ug protein) was 0 nmoles/sec/ug protein in each case.
In the case of `O=C[C@@H](O)[C@@H](O)[C@H](O)[C@@H](O)CO` [L-Gulose], in assay [3], the “KM (substrate) relative to L-Galactose” value is 30 times and the “maximum velocity with L-Gulose relative to L-Galactose” value is given as “approximately 2.5 fold”. Further, the “activity compared with L-Galactose” value in assay [3] (at limiting substrate concentrations) is “about 8%”.
Consider `O=P(O)(O)O` [phosphate, inorganic phosphate], for which, in assay [1], the “ability to act as acceptor” value is on record as “reaction was seen”, the Michaelis-Menten constant (Km) was 4400 ± 2000 µM and the vamax was 0.12±0.03 nmoles sec^−1 ug^−1 protein.
In the case of `O=P(O)(O)OP(=O)(O)O` [pyrophosphate, inorganic pyrophosphate], in assay [1], the “ability to act as acceptor” value was “reaction was seen”, the Km turned out to be 160 ± 50 µM and the vamax was 0.032±0.002 nmoles sec^−1 ug^−1 protein.

B1: 82552_Md: GDP-L-Galactose Guanyltransferase from Malus x domesticus (apple) (protein)
chain: MLRIKRVPTVVSNYQKDEAEEVARRVGGCGRNCLNQCCIPGAKLPLYAFKKLNVNDGDTGLLGREKREPPVAFLDSLLLGEWEDRMQRGLFRYDVTACETKVIPGQFGFIAQLNEGRHLKKRPTEFRVDKVLQPFDGSKFNFTKVGQEEVLFQFEASKDGEVQFFPSAPIDVESSPSVVAINVSPIEYGHVLLIPHILERLPQRIDRESFLLALHMAAEAGNPYFRLGYNSLGAFATINHLHFQAYYLAVTFPIEKAPTKKISTLNAEVKVSELLNYPVRGLVFEGGNTLQDLSNTVSDACICLQENNIPYNVLISDSGKRIFLVPQCYAEKQALGEVRAEILDTQVNPAVWEISGHMVLKRKKDYDEASDENAWKLLAEVSLSEERFLEVNALIFEGIASGDNGNENLLKDPEVKPRSHEEVNTINKRVHCSAVNEQICRVFTM
modifications: Malus x domesticus
For B1, the “effect on leaf ascorbate” value in assay [4] is on record as “increased ascorbate levels in the leaf”.

These data come from patent US9157088B2, “Transferases, epimerases, polynucleotides encoding these and uses thereof” (priority 2007, dated 2015).
